Our source for the cytotoxicity values is ChEMBL document CHEMBL3507680, “University of Dundee, Gates Library screen for HepG2 cell viability”.

The series in a line: Human HepG2 cell viability assay in 384 well format. As to conditions: HepG2 cells, read-out: Inhibition. It is filed as toxicity, cell-based. More on the design: dose 125 nL, time 70.5 hour; cytotoxicity at 70.5 h: concentration not given beside the values.
Take `COCCN1CCC2(C1)CN(c1ncc(F)cn1)C2`: the cytotoxicity at 70.5 h worked out at 0.704%.

On to `COc1ccc(F)c(-c2cc(C(=O)NC3CC3)ccn2)c1`, for which the cytotoxicity at 70.5 h is -14.2%.

Take `c1cc(COC[C@@]23CCC[C@@H]2CN(C2CCOCC2)C3)ccn1`: the cytotoxicity at 70.5 h was -2.91%.

Turning to `CN(C)C(=O)c1c[nH]nc1C1CCN(S(=O)(=O)c2cccc(Cl)c2)CC1`, the cytotoxicity at 70.5 h was 9.14%.

As to `Cc1nn(C)c(N(C)C)c1CNCc1cccnc1N(C)C`, the cytotoxicity at 70.5 h came out at 23.9%.

For `Nc1nccnc1C1CN(C(=O)c2cnccn2)CCO1` (stereo unspecified), the cytotoxicity at 70.5 h was -4.25%.

Turning to `CC(C)N(CCS(C)(=O)=O)Cc1csc(Cc2ccc(Cl)cc2)n1`, the cytotoxicity at 70.5 h stood at 3.51%.

On to `Cc1ccoc1-c1nnc(CNC2CCCN(c3cccnn3)C2)o1` (stereo unspecified), for which the cytotoxicity at 70.5 h was determined as 12.6%.

Regarding `COc1ccc(C(=O)N2CCN(C(=O)c3csc(C(C)C)n3)CC2)cc1`, the cytotoxicity at 70.5 h is 28%.

As for `COCCOC(=O)N1CC2=CC(C)(C)COc3ccc(OC)c(c32)C1`, the cytotoxicity at 70.5 h was -1.64%.

`Cc1nc2ccc(C(=O)N3CC[C@H](O)[C@@H](N4CCOCC4)CC3)cc2[nH]1`: the cytotoxicity at 70.5 h is 0.0805%.

For `Cn1cc(CN2CC[C@@H](O)[C@@H]2Cc2ccccc2)cn1`, the cytotoxicity at 70.5 h was -7.36%.

As to `NC(=O)C1CCN(C(C(=O)O)c2ccc(Cl)c(C(F)(F)F)c2)CC1` (stereo unspecified), the cytotoxicity at 70.5 h came to 13.4%.

In the case of `COCCNC(=O)c1ccoc1CN1c2ccccc2CC1C` (stereo unspecified), the cytotoxicity at 70.5 h was -6.26%.

Take `Cc1cccc(NC(=O)[C@@H]2CCCN2Cc2nnc(C(C)C)n2C)n1`: the cytotoxicity at 70.5 h was -1.83%.

Take `CC(C)CN1CC(c2nc(CCc3ccccc3)n[nH]2)CC1=O` (stereo unspecified): the cytotoxicity at 70.5 h was -9.23%.

For `Cn1c(CCNC(=O)Nc2cn[nH]c2)nc2ccc(F)cc21`, the cytotoxicity at 70.5 h was -1.73%.

Turning to `Cc1ccc(C)c(OCCN(C)C(=O)C2CCCN2C(N)=O)c1C` (stereo unspecified), the cytotoxicity at 70.5 h is -2.41%.

Regarding `CCOC(=O)C1CN(C(=O)C2CCOCC2)Cc2ncn(CC)c21` (stereo unspecified), the cytotoxicity at 70.5 h is -3.55%.

Regarding `CC(C)c1noc(CCNC(=O)N2CCN(c3cccs3)CC2)n1`, the cytotoxicity at 70.5 h is 40.3%.

Turning to `CN(C)C(=O)CO[C@H]1CN(Cc2ccc3c(c2)OCO3)[C@@H]2COC[C@H]12`, the cytotoxicity at 70.5 h is -4.69%.

Turning to `CC(C(=O)NCc1ccnc(N(C)C)c1)n1cncn1` (stereo unspecified), the cytotoxicity at 70.5 h is -10.2%.

On to `Cc1ccc(CNc2ccn(CCC(N)=O)n2)c(Br)c1`, for which the cytotoxicity at 70.5 h worked out at 8.15%.

As to `Cc1noc(-c2ccc(N3CCN(Cc4nccn4C)CC3)nc2)n1`, the cytotoxicity at 70.5 h is -15.7%.

`Cc1ccnn1CC(=O)N(C)Cc1ccc(-n2cccn2)cc1`: the cytotoxicity at 70.5 h is -7.33%.

Take `CCC(=O)NCC(=O)NCC1(c2c(F)cccc2F)CCCC1`: the cytotoxicity at 70.5 h is -4.06%.

As for `CS(=O)(=O)CCN1CCSCC1c1ccc(Cl)cc1` (stereo unspecified), the cytotoxicity at 70.5 h is -1.17%.

Turning to `Cc1ncsc1CN(C)C(=O)CC1CCOc2ccccc21` (stereo unspecified), the cytotoxicity at 70.5 h was 22.4%.

As for `Cn1nc(CN2CCCC2)c2c1CN(C(=O)c1cnccn1)CC2`, the cytotoxicity at 70.5 h was -1.41%.

Turning to `CC(C)c1nc(CN2CCC(c3ccnn3CCO)CC2)no1`, the cytotoxicity at 70.5 h came to 19.5%.

As for `Cc1cc(NC(=O)NCC(O)c2ccc(Cl)cc2Cl)n(C)n1` (stereo unspecified), the cytotoxicity at 70.5 h is -11.8%.

Regarding `COc1cccc(C(=O)C2CCCN(c3nccc(N)n3)C2)c1` (stereo unspecified), the cytotoxicity at 70.5 h was -3.78%.

As for `CC(=O)N1CCC(c2n[nH]c3nccnc23)CC1`, the cytotoxicity at 70.5 h was -7.48%.

`Cc1nnc(SC2CCN(c3sccc3C#N)C2=O)s1` (stereo unspecified): the cytotoxicity at 70.5 h worked out at 24.5%.

As to `COc1c(CNC(c2cccc(F)c2)c2nccn2C)c(C)nn1C` (stereo unspecified), the cytotoxicity at 70.5 h amounted to 19%.

As to `CCCS(=O)(=O)N1C[C@@H](Oc2ccccn2)[C@H]2OCCC[C@H]21`, the cytotoxicity at 70.5 h was -1.57%.

With `COCCN1CCC2(CCCN(Cc3ccoc3)C2)C1=O` (stereo unspecified), the cytotoxicity at 70.5 h worked out at 12.2%.

On to `COCCN1CCCC(c2cncc(Oc3ccccc3OC)n2)C1` (stereo unspecified), for which the cytotoxicity at 70.5 h is -3.1%.

Turning to `COc1cc(S(=O)(=O)N2CCc3ccccc32)cc(C(=O)O)c1OC`, the cytotoxicity at 70.5 h is -5.58%.

Consider `Cn1ccc2ccnc(CC3CN(C(=O)C4CCC(F)(F)CC4)C3)c21`, for which the cytotoxicity at 70.5 h came to 3.02%.

Turning to `Cc1ccc(N2CCCC(NCc3ccc(C)s3)C2)nn1` (stereo unspecified), the cytotoxicity at 70.5 h was determined as 3.59%.

Consider `COCCOc1ccccc1NC(C)C(=O)NC(=O)NC(C)(C)C` (stereo unspecified), for which the cytotoxicity at 70.5 h was -15.9%.

`O=C(Nc1cccnc1)[C@H]1CN(Cc2ccccn2)C[C@H]2OCC[C@@H]12`: the cytotoxicity at 70.5 h is -7.69%.

Take `Cc1nc2n(n1)CC(NCc1nc(C)c(C)o1)CC2` (stereo unspecified): the cytotoxicity at 70.5 h is -0.801%.

In the case of `Cc1nn(C)c(C)c1S(=O)(=O)NCC(C)(O)c1ccc2c(c1)OCO2` (stereo unspecified), the cytotoxicity at 70.5 h is -1.59%.

Regarding `NC(=O)c1ccc(NC(=O)Cn2cc(I)cn2)cc1`, the cytotoxicity at 70.5 h is -13.1%.

With `CCNC(=O)[C@@H]1C[C@@H](NC(=O)c2cnc[nH]c2=O)CN1Cc1ccsc1`, the cytotoxicity at 70.5 h is -2.36%.

With `CC(=O)N1CC[C@@]2(O)CCCC[C@H]2[C@@H]1c1ccc2c(c1)OCO2`, the cytotoxicity at 70.5 h is -1.93%.

As for `CCc1ncc2c(n1)CN(C(C(N)=O)c1ccccc1)CC2` (stereo unspecified), the cytotoxicity at 70.5 h is -3.45%.

For the compound `C1CN(c2nc(C3CC3)ns2)CCO1`, the cytotoxicity at 70.5 h is -5.18%.

For `Cc1ccc(N2CCN(C(=O)CCC(F)(F)F)C(C)C2)cc1` (stereo unspecified), the cytotoxicity at 70.5 h is -18.6%.

For the compound `COc1ccc2cc(CN(C)CCc3cn[nH]c3)c(=O)[nH]c2c1`, the cytotoxicity at 70.5 h is -6.43%.

For `CCc1cccc(N2CCC(NC(=O)C3CCC3)CC2)c1`, the cytotoxicity at 70.5 h is -6.88%.

For `CCOc1ccccc1OCC(=O)NCc1ncc(C)c(OC)c1C`, the cytotoxicity at 70.5 h was -10.2%.

As to `COCCNC(=O)CCC1CCN(Cc2cccc(SC)c2)CC1`, the cytotoxicity at 70.5 h came to 5.26%.

On to `O=C(Cc1cn2ccccc2n1)N1CCCC(n2ccnc2)C1` (stereo unspecified), for which the cytotoxicity at 70.5 h is -3.99%.

On to `CC[C@@]1(O)CCN(C(=O)CCSCc2ccc(F)cc2)C[C@H]1O`, for which the cytotoxicity at 70.5 h worked out at 14.3%.

As to `Cn1cc(C(=O)N2CCCC(Cc3cccc4ncccc34)C2)cn1` (stereo unspecified), the cytotoxicity at 70.5 h is -3.73%.

Take `Cc1cc(CN2CC[C@H]3[C@H]2CCN3S(C)(=O)=O)oc1C`: the cytotoxicity at 70.5 h is -8.76%.

Take `Cn1ncc(C(=O)N2CCOCC2)c1Cl`: the cytotoxicity at 70.5 h was -13.1%.

Take `COCC(C)N(C)C(=O)CCc1c(C)nc2c(C#N)cnn2c1C` (stereo unspecified): the cytotoxicity at 70.5 h came out at 3.69%.

On to `Cc1ccc(-c2ncc(C(=O)NCCNC(=O)C(C)C)s2)c(C)c1`, for which the cytotoxicity at 70.5 h was -8.72%.

In the case of `CCNC(=O)NC(=O)CSC(C)c1c(F)cccc1F` (stereo unspecified), the cytotoxicity at 70.5 h was found to be 10.3%.

Consider `CC(C)(C)c1noc(CN2CCCN(Cc3cccs3)CC2)n1`, for which the cytotoxicity at 70.5 h is -3.44%.

On to `Cc1nc(N2CCCC2)nc2c1CCN(C(=O)C1CCCC1)CC2`, for which the cytotoxicity at 70.5 h is -9.52%.

On to `Cn1cnc(-c2ccc(F)cc2)c1NC(=O)CCNC(=O)C(C)(C)C`, for which the cytotoxicity at 70.5 h is -7.61%.

For `Cc1noc(C2CCCN(C(=O)c3ccc(Cl)cc3F)C2)n1` (stereo unspecified), the cytotoxicity at 70.5 h was -7.02%.

For `Nc1nc(C2CCN(C(=O)c3cscn3)CC2)cs1`, the cytotoxicity at 70.5 h is -18.4%.

Take `CC(=O)NCCCSC1CCN(c2c(F)cccc2F)C1=O` (stereo unspecified): the cytotoxicity at 70.5 h is 22.9%.

As for `N#CC1CCN(C(=O)NCCc2ccc(Cl)s2)CC1`, the cytotoxicity at 70.5 h was -3.5%.

For `Cc1ccc(C(=O)N2CCN(C(=O)NC(C)Cn3ccnc3)CC2)o1` (stereo unspecified), the cytotoxicity at 70.5 h is -4.96%.
